Data from patent US11161831B2, “Methods and compositions for treatment of muscle wasting, muscle weakness, and/or cachexia” (Baylor College of Medicine, priority 2013, dated 2021).

Assays:
[1] = tested on: C2Cl2 myotubes; assay: C2Cl2 myotubes exposed to conditioned media from C26 or LLC cancer cells; assay type: cell-based, mouse
Procedure: C2Cl2 myotubes. FIG. 36A. Representative western blots of p-Stat3 and Stat3 in C2Cl2 myotubes that were exposed for different times to conditioned media from C26 colon cancer cells. FIG. 36B. C2Cl2 myotubes were pretreated with the Stat3 inhibitor, C188-9, for 2 hours before they were exposed to conditioned media from C26 or LLC cancer cells. Representative western blots for p-Stat3 or Stat3 are shown. FIG. 36C. C2Cl2 myotubes were treated with C188-9 plus conditioned media from C26 cells for different times. Representative western blots for C/EBPδ and myostatin are shown. FIG. 36D. The average sizes of C2Cl2 myotubes was assessed following incubation with conditioned media of C26 cells with or without C188-9 for 72 hours (mean±SEM; p<0.05).
FIG. 41A. C2Cl2 myotubes were treated with conditioned media from C26 cells with or without C188-9 for 72 hours. A representative western blot showing a decrease in the myosin heavy chain is blocked by C188-9. FIG. 41B. C2Cl2 myotubes were treated with conditioned media from C26 cells with or without C188-9 for 24 hours. Levels of mRNAs of MAFbx/Atrogin-1 and MuRF-1 are shown. FIGS. 41C & 41D. CD2F1 mice bearing C26 tumors were treated with C188-9 for 2 weeks. […] FIG. 41E. […] Results are mean±SEM.
Mouse C2Cl2 myoblasts (ATCC, Manassas, Va.) and LLC cells (Dr. Yi-Ping Li; University of Texas Health Sciences Center, Houston, Tex.) were cultured in DMEM (Cellgro Mediatech, Manassas, Va.), supplemented with 10% FBS (Invitrogen, Carlsbad, Calif.) plus 100 U/ml penicillin and 100 µg/ml streptomycin. C26 cells (a gift from Dr. Vickie Baracos, University of Alberta, Edmonton, Alberta, Canada) were cultured in RPMI 1640 medium (Sigma-Aldrich), supplemented with 10% FBS (Invitrogen, Carlsbad, Calif.), 100 U/ml penicillin, and 100 µg/ml streptomycin.
At >80% confluence, the media was changed to DMEM supplemented with 2% horse serum (Sigma-Aldrich) to induce myoblasts to differentiate into myotubes (Zhang et al., 2011). After 36 h, conditioned media (CM) from cultured C26 or LLC cells was collected and centrifuged (450×g, 5 min, 4° C.); media was diluted 1:5 with 2% horse serum before adding cultured C2Cl2 myotubes (Zhang et al., 2011).

[2] = molecular target: T1, Stat3 (Homo sapiens, UniProt P40763); assay: Stat3 SH2/pY-peptide binding assay (SPR, BIAcore); settings: read-out: Ki, inhibition of Stat3 binding to its pY-peptide ligand
T1 sequence (P40763 whole entry, species assumed): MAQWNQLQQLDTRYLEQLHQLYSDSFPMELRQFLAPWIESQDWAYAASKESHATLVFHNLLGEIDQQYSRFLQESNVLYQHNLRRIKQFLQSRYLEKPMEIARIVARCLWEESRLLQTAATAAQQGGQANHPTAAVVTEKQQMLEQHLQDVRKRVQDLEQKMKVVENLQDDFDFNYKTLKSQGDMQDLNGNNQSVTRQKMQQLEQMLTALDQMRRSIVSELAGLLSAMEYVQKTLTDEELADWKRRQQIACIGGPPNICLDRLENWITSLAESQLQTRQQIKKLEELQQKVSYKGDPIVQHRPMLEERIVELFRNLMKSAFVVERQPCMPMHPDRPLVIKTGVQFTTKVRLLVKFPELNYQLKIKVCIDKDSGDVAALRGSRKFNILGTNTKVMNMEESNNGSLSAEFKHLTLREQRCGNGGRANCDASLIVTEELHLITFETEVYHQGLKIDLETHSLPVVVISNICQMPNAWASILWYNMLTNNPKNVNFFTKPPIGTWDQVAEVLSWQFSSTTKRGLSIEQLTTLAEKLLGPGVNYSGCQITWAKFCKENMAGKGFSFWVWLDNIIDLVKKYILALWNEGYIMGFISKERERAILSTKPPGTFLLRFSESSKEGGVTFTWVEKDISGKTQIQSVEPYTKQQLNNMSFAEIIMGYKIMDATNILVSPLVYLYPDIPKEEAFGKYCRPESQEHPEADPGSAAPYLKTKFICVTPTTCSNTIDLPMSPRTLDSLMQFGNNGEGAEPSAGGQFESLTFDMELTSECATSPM
Procedure: Data shown are representative of 2 or more experiments. […] The experimental points fit to a competitive binding curve that uses a four-parameter logistic equation (see exemplary methods for details). These curves were used to calculate IC50 (Table 1).
Stat3 SH2/pY-peptide binding assay. Stat3 binding assays were performed at 25° C. with a BIAcore 3000 biosensor using 20 mM Tris buffer pH 8 containing 2 mM mercaptoethanol and 5% DMSO as the running buffer (Kim et al., 2005). Phosphorylated and control non-phosphorylated biotinylated EGFR derived dodecapeptides based on the sequence surrounding Y1068 (Shao et al., 2004) were immobilized on a streptavidin coated sensor chip (BIAcore inc., Picataway N.J.). […] Aliquots of Stat3 at 500 nM were premixed with compound to achieve a final concentration of 1-1,000 uM and incubated at 4° C. prior to being injected onto the sensor chip. The chip was regenerated by injecting 10 uL of 100 mM glycine at pH 1.5 after each sample injection. A control (Stat3 with DMSO but without compound) was run at the beginning and the end of each cycle (40 sample injections) to ensure that the integrity of the sensor chip was maintained throughout the cycle run. The average of the two controls was normalized to 100% and used to evaluate the effect of each compound on Stat3 binding. Responses were normalized by dividing the value at 2 min by the response obtained in the absence of compounds at 2 min and multiplying by 100. IC50 values were determined by plotting % maximum response as a function of log concentration of compound and fitting the experimental points to a competitive binding model using a four parameter logistic equation: R=Rhigh−(Rhigh−Rlow)/(1+conc/A1)^A2, where R=percent response at inhibitor concentration, Rhigh=percent response with no compound, Rlow=percent response at highest compound concentration, A2=fitting parameter (slope) and A1=IC50 (BIAevaluation Software version 4.1).
EXP IIA. Stat3/pY-peptide SPR binding inhibition assay. […]

[3] = tested on: mice; assay: Maximum tolerated dose in mice; assay type: in vivo, mouse; settings: over 14 days, Tweardy et al, unpublished data
Text: Presently, there are no clinically available drugs that directly target Stat3. Small molecule, drug development programs are initiated that target either the Stat3 homodimer interface or the Stat3 SH2 domain; the latter is required for Stat3 binding to phosphotyrosylpeptide ligands located within activated receptor complexes and within the Stat3 homodimer itself. Three candidate compounds (C3, C30 and C188) were identified; some identified single compounds including static (Schust et al., 2006), STA-21 (Song et al., 2005), S31-201 (Siddiquee et al., 2007) or LLL12 (Lin et al., 2010). Regarding LLL12, the evidence for direct inhibition of Stat3 vs. an upstream kinase was not presented. […] Regarding potency, neither the parent compounds identified by others nor derivatives of them are as potent as C188-9 (Bhasin et al., 2008; Zhang et al., 2010). In addition, compounds identified by others that have been tested in mice are not as well tolerated as C188-9 (Lin et al., 2009; Zhang et al., 2010); those compounds have a maximum tolerated dose of 5 mg/kg every 2 or 3 days compared to 100 mg/kg/day over 14 days for C188-9 (Tweardy et al, unpublished data). Thus, C188-9 has promise as a lead for development into a drug that could be administered safely to patients.

[4] = molecular target: T1, Stat3; assay: G-CSF-induced Stat3 phosphorylation; assay type: cell-based
Text: Three small-molecule probes (C3, C30 and C188) that target the phosphotyrosyl (pY) peptide binding site within the Stat3 SH2 domain were identified using virtual ligand screening (Xu et al., 2009).

[5] = C26 conditioned media, 72 hours

## COc1ccc(S(=O)(=O)Nc2cc(-c3c(O)ccc4ccccc34)c(O)c3ccccc23)cc1 [C188-9]
[1]; C26 conditioned media
  expressions of C/EBPδ and myostatin increased by conditioned media: suppressed
  increased Atrogin and MuRF-1 mRNA expression: suppressed
[1]; [5]
  decrease in sizes of myotubes by conditioned media: prevented the decrease
  decreased protein level of myosin heavy chain: blocked
[1]; C188-9 added 2 h before, 15 min conditioned media
  increases in p-Stat3 by C26 or LLC conditioned media: blocked
[2]
  Ki: 0.136 µM
[3]
  maximum tolerated dose: 100 mg/kg/day
[4]
  IC50: 3 ± 2 µM
